Here are results for 1 compound from patent US20240122929A1, “BODY TEMPERATURE LOWERING AGENT, BODY TEMPERATURE ELEVATION SUPPRESSOR, FOOD COMPOSITION FOR LOWERING BODY TEMPERATURE,AND FOOD COMPOSITION FOR SUPPRESSING BODY TEMPERATURE ELEVATION” (University of Tsukuba, priority 2021, published 2024).

For series [1], the system named is male Wistar rat. As to the kind of experiment: Effect of orotic acid on core body temperature at rest (telemetry, breath gas analysis, spontaneous activity). In kind it is in vivo. The text has this:
The body temperature lowering action of the body temperature lowering agent according to the embodiment of the present invention can be measured by a method for measuring the core body temperature at rest. The core body temperature at rest can be measured in accordance with a known method, for example, the method described in an article of Takahashi et al. (Nature 583: 109-114, 2020) and the like. Specifically, the measurement can be performed in the following manner. The core body temperature at rest is measured using a TRM54P Rat Telemetry System (available from KAHA Sciences) and SmartPad (TR181: available from KAHA Sciences) and quantified. The main body of TRM54P Rat Telemetry System is indwelled in the abdominal cavity of a test animal for measurement. All experiments are performed in the light phase, and on the day of the experiments, a rat is fasted 2 hours before start of the test to eliminate the effect of food-induced heat production. After the core body temperature at rest is measured for 20 minutes, a drug (orotic acids) or vehicle is intraperitoneally administered, and the core body temperature is measured for 120 minutes. In a case where the core body temperature at rest is lowered as compared with a case where orotic acids are not administered, it can be determined that the orotic acids have a body temperature lowering action. A 10-week-old male Wistar rat was used, and a one-week preliminary breeding period was provided before the day of an experiment. During the experiment, room temperature was maintained at 22±2° C. After the preliminary breeding, a telemetry (TRM54P, available from KAHA Sciences) for measuring the body temperature was indwelled in the abdominal cavity, and a recovery period and an acclimation period were provided for one week each. 300 mg/kg orotic acid, 30 mg/kg orotic acid, or a vehicle (1% carboxymethyl cellulose) was intraperitoneally administered to examine the effect on the core body temperature at rest. In addition to the core body temperature and a heart rate, an oxygen/carbon dioxide intake was measured using a breath gas analyzer (trade name: Oxymax, available from Columbus Instruments) to calculate a respiratory exchange ratio (also referred to as RER) and an amount of heat production. In addition, the amount of spontaneous activity was measured using an infrared beam sensor (trade name: beam sensor type spontaneous activity amount measuring device, available from Panlab). Note that in the experiment, the rat was placed under fasting for 2 hours before the start of the experiment, and the core body temperature at rest was measured for 20 minutes. Thereafter, the orotic acid or vehicle was intraperitoneally administered, and the measurement was performed until 2 hours later. The orotic acid was used in a free form.

Series [2] has as its system male Wistar rat. As to the kind of experiment: Effect of orotic acid on core body temperature during treadmill exercise. In kind it is in vivo. The note with it: treadmill 20 m/min for 30 minutes. The source says: The body temperature elevation suppressing action of the body temperature elevation suppressor according to the embodiment of the present invention can be measured by a method for measuring the core body temperature during exercise. The core body temperature during exercise can be measured in accordance with a known method, for example, a method described in the article by Takahashi et al. (Nature 583: 109-114, 2020) and the like. Specifically, the measurement can be performed in the following manner. A rat is placed in a treadmill metabolism chamber for small animals having an inclination of 10°, and after measuring the core body temperature at rest for 20 minutes, a single dose of a drug (orotic acids) is administered intraperitoneally. After the administration, the rat is left in a rest state for 15 minutes, and then exercise is started. The exercise is started at a running speed of 5 m/min, the running speed is increased to 20 m/min over 5 minutes, and the core body temperature is measured in the same manner as the method for measuring the core body temperature at rest. In a case where the core body temperature elevation during exercise is suppressed as compared with a case where the orotic acids are not administered, it can be determined that the orotic acids have the body temperature elevation suppressing action. A 10-week-old male Wistar rat was used, and a one-week preliminary breeding period was provided before the day of an experiment. During the experiment, room temperature was maintained at 22±2° C. After the preliminary breeding, a telemetry (trade name: TRM54P, available from KAHA Sciences) for measuring the body temperature was indwelled in the abdominal cavity, and a running test was performed after a recovery period of one week. Note that in the experiment, after 300 mg/kg orotic acid or a vehicle (physiological saline) was intraperitoneally administered in a rest state, treadmill exercise (20 m/min) was performed for 30 minutes, and the measurement was performed until 1 hour after the end of the exercise. The measurement items were core body temperature, a blood pressure, a heart rate, and breath gas metabolism. From the obtained oxygen/carbon dioxide intake, exercise economy was calculated. The orotic acid was used in a free form.

The next series concerns rat. The note with it: orotic acid administered to a rat, Non-Patent Document 2; cited from earlier work.

In the case of `O=C(O)c1cc(=O)[nH]c(=O)[nH]1` [orotic acid], in the series on male Wistar rat [1] (30 mg/kg and 300 mg/kg intraperitoneal vs vehicle, infrared beam sensor, FIG. 4), the “amount of spontaneous activity at rest” value was “no difference between the groups”. Further, the “core body temperature at rest, dose dependence” value in the series with male Wistar rat [1] (30 mg/kg and 300 mg/kg intraperitoneal, FIG. 1) is “decreased in a concentration dependent manner”. Also, the “heart rate at rest” value in the series on male Wistar rat [1] (30 mg/kg and 300 mg/kg intraperitoneal, FIG. 2) is given as “did not fluctuate”. In the series with male Wistar rat [1] (300 mg/kg intraperitoneal, vs vehicle (1% carboxymethyl cellulose), measured until 2 hours after administration, FIG. 1), the “core body temperature at rest” value is listed as “significantly decreased”. In the series with male Wistar rat [1] (300 mg/kg intraperitoneal, vs vehicle, breath gas analyzer, FIG. 3), the “amount of heat production at rest” value is given as “significantly decreased”. The “contraction phase, diastole phase and mean blood pressure at rest” value with male Wistar rat [1] (orotic acid administered groups (30 and 300 mg/kg intraperitoneal), data not shown) was “significantly increased”. The exercise economy entry in the series with male Wistar rat [2] (300 mg/kg intraperitoneal vs vehicle (physiological saline), FIG. 8) is “increased”. Besides, the “excessive core body temperature elevation during exercise” value with male Wistar rat [2] (300 mg/kg intraperitoneal vs vehicle, FIG. 5) is on record as “suppressed”. Also, the “heart rate during exercise” value with male Wistar rat [2] (300 mg/kg intraperitoneal vs vehicle, FIG. 6) was “significantly decreased”. Besides, the “amount of heat production during exercise” value in the series on male Wistar rat [2] (300 mg/kg intraperitoneal vs vehicle, FIG. 7) was “lowered”. The body temperature result with rat is recorded as “not lowered”.
